Where two headings read alike, the source gives them in different places.
Legend:
[1] = tested on: rats; assay: METH-stimulated locomotor activity in rats; assay type: in vivo, rat; conditions: s.c.
[2] = biological target: dopamine transporter (DAT) (Rattus norvegicus (Rat), UniProt P23977); assay: [3H]DA uptake assay, synaptosomal preparation; assay type: biochemical
Description: (§1) [^3H]DA and [^3H]5-HT uptake into striatal synaptosomes was determined to evaluate compound inhibition of the dopamine transporter (DAT) and the serotonin transporter (SERT), respectively.

[3] = biological target: T1, VMAT2 (Rattus norvegicus (Rat), UniProt Q01827); assay: [3H]Dopamine ([3H]DA) uptake assay, vesicular preparation; assay type: biochemical
[4] = biological target: hERG channel (selectivity at VMAT2 over hERG) (Homo sapiens (Human), UniProt Q12809); assay: [3H]Dofetilide binding assay, HEK-293 cell membrane preparation; conditions: human, pH 7.4
hERG channel (selectivity at VMAT2 over hERG), sequence (Q12809 whole entry): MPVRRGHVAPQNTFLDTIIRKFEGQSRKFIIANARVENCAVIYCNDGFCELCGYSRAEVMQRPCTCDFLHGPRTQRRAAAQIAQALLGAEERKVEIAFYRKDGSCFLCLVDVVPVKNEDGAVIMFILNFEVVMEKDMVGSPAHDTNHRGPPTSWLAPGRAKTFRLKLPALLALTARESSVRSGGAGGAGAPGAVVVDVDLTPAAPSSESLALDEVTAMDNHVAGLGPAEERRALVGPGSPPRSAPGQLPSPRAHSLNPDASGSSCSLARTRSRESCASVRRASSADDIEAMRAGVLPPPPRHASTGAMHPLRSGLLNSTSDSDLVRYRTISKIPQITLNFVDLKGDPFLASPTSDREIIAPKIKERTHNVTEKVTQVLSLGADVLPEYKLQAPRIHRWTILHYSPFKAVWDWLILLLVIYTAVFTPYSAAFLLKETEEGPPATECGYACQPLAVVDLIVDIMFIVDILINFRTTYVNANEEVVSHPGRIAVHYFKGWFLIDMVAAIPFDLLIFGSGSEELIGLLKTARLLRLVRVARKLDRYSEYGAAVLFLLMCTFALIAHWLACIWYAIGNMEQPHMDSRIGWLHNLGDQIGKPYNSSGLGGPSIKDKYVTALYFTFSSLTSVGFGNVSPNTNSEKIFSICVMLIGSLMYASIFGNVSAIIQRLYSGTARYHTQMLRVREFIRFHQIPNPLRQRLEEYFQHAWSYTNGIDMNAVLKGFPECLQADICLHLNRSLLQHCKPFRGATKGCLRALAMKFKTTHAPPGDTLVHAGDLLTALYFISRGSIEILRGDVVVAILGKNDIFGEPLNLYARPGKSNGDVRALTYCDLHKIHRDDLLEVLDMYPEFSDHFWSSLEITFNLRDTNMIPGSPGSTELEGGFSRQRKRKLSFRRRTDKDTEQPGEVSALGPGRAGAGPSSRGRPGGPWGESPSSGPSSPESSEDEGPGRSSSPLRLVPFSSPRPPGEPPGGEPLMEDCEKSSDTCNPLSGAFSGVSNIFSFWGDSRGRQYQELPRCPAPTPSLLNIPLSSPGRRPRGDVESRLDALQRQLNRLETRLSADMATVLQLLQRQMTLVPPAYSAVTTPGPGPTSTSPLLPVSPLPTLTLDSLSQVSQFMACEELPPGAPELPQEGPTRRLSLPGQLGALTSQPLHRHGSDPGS

[5] = biological target: serotonin transporter (SERT) (Rattus norvegicus (Rat), UniProt P31652); assay: [3H]5-HT uptake assay, synaptosomal preparation; assay type: biochemical
Description: as §1

[6] = tested on: rat striatal slices; conditions: cited from earlier work
[7] = in vivo; cited from earlier work
[8] = biological target: T1, VMAT2; conditions: rat brain vesicles; read-out: inhibition of [3H]DA uptake into rat brain vesicles via VMAT2 (Ki); cited from earlier work
[9] = [3H]DA uptake (Ki) VMAT2, rat striatal synaptic vesicles

Row | Compound | METH-stimulated locomotor activity ([1]; 3 mg/kg) | selectivity at VMAT2 over DAT [2] [fold] | Ki ([3]; Ki value at VMAT2, text value) [µM] | Ki [3, 9] [µM] | selectivity ratio at 1 hr [4] | selectivity at VMAT2 over SERT [5] [fold] | METH-stimulated locomotor activity ([1]; 17 mg/kg) | METH-evoked DA overflow [6] | METH self-administration [7] | Ki [8] [µM]
1 | COc1ccc(CCCN[C@H](C)Cc2ccccc2)cc1.Cl [Compound 9] | significant reduction | > 30 | 0.00871 ± 0.00365 | 0.0087 ± 0.0065 | > 30 | > 30 |  |  |  | 
2 | COc1ccc(CCCN[C@@H](C)Cc2ccccc2)cc1.Cl [Compound 10] |  | > 30 | 0.0255 ± 0.00357 | 0.026 ± 0.0036 | > 30 | > 30 | significant reduction |  |  | 
3 | CN1[C@@H](CCc2ccccc2)CCC[C@H]1CCc1ccccc1 [Lobelane] |  |  |  |  |  |  |  | decreases | decreases | 
4 | c1ccc(CC[C@H]2CCC[C@@H](CCc3ccccc3)N2)cc1 [Nor-Lobelane] |  |  |  |  |  |  |  |  |  | 0.044
